Experimental data published in ChEMBL document CHEMBL1201862, “PubChem BioAssay data set” (2004).
Calls of active or inactive are those of the source. Rule as the data show it, for most assays here: actives have a measured EC50 and inactives only a lower limit.

Assays:
[1] = molecular target: Luciferin 4-monooxygenase (Photinus pyralis, UniProt P08659); test: inhibition of purified Photinus pyralis luciferase – biochemical, luminescence, dose response (AID 1891)
[2] = Luminescence Cell-Based Dose Confirmation HTS to Identify Inhibitors of Platelet Dense Granule Release. [Related pubchem assays: 1663 (Primary HTS), 1678 (Summary of Project)]; type: functional
[3] = molecular target: T1, Heat shock factor protein 1 (Mus musculus, UniProt P38532); test: decrease of HSF1-responsive luciferase luminescence – cell-based, NIH3T3, dose retest, confirmation (AID 2382); type: functional;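 also: NIH3T3 fibroblasts with HSF1-driven luciferase reporter stressed by proteasome inhibitor MG132; luminescence from HSF1-driven luciferase expression after 8 hours of MG132 stress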
T1 sequence (P38532 whole entry): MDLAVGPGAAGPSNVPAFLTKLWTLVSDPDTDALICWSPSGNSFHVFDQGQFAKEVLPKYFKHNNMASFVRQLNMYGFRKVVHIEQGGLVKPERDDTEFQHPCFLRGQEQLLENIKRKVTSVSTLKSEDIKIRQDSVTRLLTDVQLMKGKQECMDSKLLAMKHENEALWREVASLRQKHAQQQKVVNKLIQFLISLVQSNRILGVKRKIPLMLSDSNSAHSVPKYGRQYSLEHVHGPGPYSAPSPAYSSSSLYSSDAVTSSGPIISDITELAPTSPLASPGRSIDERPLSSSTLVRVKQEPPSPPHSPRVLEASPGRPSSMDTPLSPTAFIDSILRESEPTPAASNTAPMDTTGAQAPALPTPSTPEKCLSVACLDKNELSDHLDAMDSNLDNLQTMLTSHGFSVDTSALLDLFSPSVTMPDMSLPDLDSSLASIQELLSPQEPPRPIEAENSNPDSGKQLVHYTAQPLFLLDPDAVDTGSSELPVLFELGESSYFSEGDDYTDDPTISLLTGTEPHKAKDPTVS

[4] = alpha-synuclein stem-loop luciferase translation blockers – H4 neuroglioma cells, luminescence, confirmation (AID 1988); type: functional, cell-based
[5] = luciferase reporter signal suppression in cells – H4 neuroglioma cells, luminescence, dose response (AID 1990); type: functional, cell-based
[6] = Luminescence Cell-Based Dose Response HTS to Identify Inhibitors of 5'UTR Stem-Loop Driven Prion Protein mRNA Translation in H4 Neuroglioblastoma Cells. [Related pubchem assays: 1827 (Project Summary), 1813 (Primary HTS)]; type: functional
[7] = molecular target: T2, Replicative DNA helicase DnaB (Mycobacterium tuberculosis, UniProt P9WMR3); test: DnaB intein splicing inhibitors, dose response, biochemical, cell-free fluorescence (AID 449749); type: functional
T2 sequence (P9WMR3 whole entry): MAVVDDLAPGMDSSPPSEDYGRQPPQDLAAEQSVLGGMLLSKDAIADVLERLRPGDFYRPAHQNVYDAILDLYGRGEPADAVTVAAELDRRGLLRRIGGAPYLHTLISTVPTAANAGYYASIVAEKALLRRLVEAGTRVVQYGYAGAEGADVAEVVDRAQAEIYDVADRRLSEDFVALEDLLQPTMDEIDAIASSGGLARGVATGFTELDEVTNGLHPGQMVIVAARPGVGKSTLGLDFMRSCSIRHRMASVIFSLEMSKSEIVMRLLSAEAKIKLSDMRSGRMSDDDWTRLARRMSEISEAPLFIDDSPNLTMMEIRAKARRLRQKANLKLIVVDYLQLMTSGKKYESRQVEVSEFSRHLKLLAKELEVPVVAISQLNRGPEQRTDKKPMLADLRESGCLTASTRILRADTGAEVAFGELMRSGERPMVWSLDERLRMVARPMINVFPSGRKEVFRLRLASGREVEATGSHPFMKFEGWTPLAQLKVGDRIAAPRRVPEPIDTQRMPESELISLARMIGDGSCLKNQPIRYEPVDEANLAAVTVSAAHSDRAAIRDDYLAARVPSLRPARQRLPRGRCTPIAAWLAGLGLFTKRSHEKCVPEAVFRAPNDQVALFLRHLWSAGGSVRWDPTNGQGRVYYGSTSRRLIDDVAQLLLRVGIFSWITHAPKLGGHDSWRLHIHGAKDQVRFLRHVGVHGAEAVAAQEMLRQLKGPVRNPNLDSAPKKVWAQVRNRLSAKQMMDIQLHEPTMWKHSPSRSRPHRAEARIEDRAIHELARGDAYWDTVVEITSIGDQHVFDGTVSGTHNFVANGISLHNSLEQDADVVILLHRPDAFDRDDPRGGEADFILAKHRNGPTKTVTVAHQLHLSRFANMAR

Protein RecA = molecular target: T3, Protein RecA (Mycobacterium tuberculosis, UniProt P9WHJ3); test: Fluorescence Cell-Free Homogeneous Dose Retest to Identify Inhibitors of RecA-Intein Splicing Activity. [Related pubchem assays (depositor defined):AID2097, AID2223, AID489010, AID492950]; type: functional
T3 sequence (P9WHJ3 whole entry): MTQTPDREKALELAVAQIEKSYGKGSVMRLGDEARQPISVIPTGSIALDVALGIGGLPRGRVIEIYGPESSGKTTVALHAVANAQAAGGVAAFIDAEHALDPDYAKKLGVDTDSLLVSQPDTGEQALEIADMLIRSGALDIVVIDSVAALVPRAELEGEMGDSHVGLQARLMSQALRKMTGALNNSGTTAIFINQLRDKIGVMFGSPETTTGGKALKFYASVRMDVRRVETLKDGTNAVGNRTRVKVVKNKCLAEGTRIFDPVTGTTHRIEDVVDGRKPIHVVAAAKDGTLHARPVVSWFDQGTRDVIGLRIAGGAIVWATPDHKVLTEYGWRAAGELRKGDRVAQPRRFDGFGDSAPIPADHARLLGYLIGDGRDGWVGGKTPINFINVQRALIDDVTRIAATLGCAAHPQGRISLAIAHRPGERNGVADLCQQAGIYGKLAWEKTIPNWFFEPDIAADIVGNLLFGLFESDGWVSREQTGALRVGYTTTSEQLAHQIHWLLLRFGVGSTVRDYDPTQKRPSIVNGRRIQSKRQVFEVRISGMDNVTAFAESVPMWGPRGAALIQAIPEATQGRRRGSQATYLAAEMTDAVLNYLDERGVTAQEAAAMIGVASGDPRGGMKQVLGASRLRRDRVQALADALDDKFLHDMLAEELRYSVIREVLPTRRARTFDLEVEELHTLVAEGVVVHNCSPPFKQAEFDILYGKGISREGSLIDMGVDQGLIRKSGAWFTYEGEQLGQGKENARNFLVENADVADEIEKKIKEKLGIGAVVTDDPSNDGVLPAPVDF

[8] = molecular target: T4, Corticotropin-releasing factor receptor 2/Corticotropin-releasing factor-binding protein (Homo sapiens, UniProt P24387+Q13324); test: activators of CRF receptor 2 with binding protein – uHTS hits, confirmation (AID 602473); type: functional; details: read-out: EC50_Mean
T4 sequence (Q13324 whole entry): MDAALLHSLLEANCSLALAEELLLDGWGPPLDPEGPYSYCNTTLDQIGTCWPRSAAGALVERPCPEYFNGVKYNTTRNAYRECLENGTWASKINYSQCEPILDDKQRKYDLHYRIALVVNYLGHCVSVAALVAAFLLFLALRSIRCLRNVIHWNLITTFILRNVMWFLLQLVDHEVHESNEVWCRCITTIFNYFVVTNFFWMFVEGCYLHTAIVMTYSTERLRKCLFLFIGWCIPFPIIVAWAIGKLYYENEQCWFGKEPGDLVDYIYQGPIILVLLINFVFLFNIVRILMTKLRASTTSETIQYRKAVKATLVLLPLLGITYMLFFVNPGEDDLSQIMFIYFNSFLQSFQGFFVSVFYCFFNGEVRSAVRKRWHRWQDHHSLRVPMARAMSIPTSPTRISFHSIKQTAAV
T4 sequence (P24387 whole entry): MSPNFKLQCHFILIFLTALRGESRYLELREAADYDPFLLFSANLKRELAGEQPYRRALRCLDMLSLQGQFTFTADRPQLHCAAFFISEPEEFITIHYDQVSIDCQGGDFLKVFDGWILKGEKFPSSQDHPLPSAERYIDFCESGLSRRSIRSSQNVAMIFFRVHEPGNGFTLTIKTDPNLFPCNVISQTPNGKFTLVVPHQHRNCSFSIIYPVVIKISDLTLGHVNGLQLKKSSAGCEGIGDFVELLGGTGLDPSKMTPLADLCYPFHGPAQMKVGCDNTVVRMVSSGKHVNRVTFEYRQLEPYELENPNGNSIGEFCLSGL

[9] = test system: Streptococcus sp. 'group A'; test: Streptococcus pyogenes SK(-)GAS viability under kanamycin – luminescence, BacTiterGlo, confirmation, counter-screen for streptokinase expression inhibitor project, dose response (AID 1900); type: functional, organism-based
[10] = molecular target: T4, Corticotropin-releasing factor receptor 2/Corticotropin-releasing factor-binding protein; test: Dose Response confirmation of uHTS hits for small molecule antagonists of the CRF-binding protein and CRF-R2 receptor complex.; type: functional; details: read-out: IC50_Mean
Streptococcus = test: GAS UMAA2166 growth inhibition – luminescence, BacTiterGlo, counter-screen for streptokinase expression inhibitor project, dose response (AID 1915); type: functional, organism-based;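 also: potency for reduction of bacterial viability or growth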
[11] = Luminescence Cell-Based Dose Response HTS to Identify Activators of Luciferase Translation or Activity in H4 […] Cells. [Related pubchem assays: 1829 (Project Summary), 1814 (Primary HTS)]; type: functional
[12] = Luminescence Cell-Based Dose Confirmation HTS to Identify Activators of 5'UTR Stem-Loop Driven Alpha-Synuclein mRNA Translation in H4 Neuroglioblastoma Cells. [Related pubchem assays: 1829 (Project Summary), 1814 (Primary HTS)]; type: functional
H4 = test: Luminescence Cell-Based Dose Response HTS to Identify Activators of 5'UTR Stem-Loop Driven Prion Protein mRNA Translation in H4 Neuroglioblastoma Cells. [Related pubchem assays: 1829 (Project Summary), 1814 (Primary HTS)]; type: functional; details: Homo sapiens
[13] = non-specific 3'UTR reporter inhibition in Clone20-Shn3RL – cell-based, Renilla luciferase, cherry-picked, counter-screen for Shn3 inhibitor project, dose response (AID 624133); type: functional
[14] = reduction of Shn3 3'UTR-driven luciferase in osteoblasts – cell-based, Clone20 osteoblasts, firefly luciferase, cherry-picked, dose response (AID 624132); type: functional;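 also: firefly luciferase luminescence from reporter carrying the Shn3 3'UTR in osteoblasts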
[15] = viability of HCT116 lacking mutant beta-catenin – cell-based, human colon tumor, dose response (AID 1045); type: functional;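 also: HCT116 colon tumor cells with beta catenin knocked out; cells exposed to compound for 60 hours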
[16] = viability of PTEN-deleted HCT116 cells – cell-based, HCT116 PTEN knockout, dose response (AID 1047); type: functional;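 also: HCT116 colon tumor cells with PTEN knocked out; cells exposed to compound for 60 hours before readout; potency for loss of cell viability measured by luminescence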

Chain of Luciferin 4-monooxygenase (P08659 whole entry): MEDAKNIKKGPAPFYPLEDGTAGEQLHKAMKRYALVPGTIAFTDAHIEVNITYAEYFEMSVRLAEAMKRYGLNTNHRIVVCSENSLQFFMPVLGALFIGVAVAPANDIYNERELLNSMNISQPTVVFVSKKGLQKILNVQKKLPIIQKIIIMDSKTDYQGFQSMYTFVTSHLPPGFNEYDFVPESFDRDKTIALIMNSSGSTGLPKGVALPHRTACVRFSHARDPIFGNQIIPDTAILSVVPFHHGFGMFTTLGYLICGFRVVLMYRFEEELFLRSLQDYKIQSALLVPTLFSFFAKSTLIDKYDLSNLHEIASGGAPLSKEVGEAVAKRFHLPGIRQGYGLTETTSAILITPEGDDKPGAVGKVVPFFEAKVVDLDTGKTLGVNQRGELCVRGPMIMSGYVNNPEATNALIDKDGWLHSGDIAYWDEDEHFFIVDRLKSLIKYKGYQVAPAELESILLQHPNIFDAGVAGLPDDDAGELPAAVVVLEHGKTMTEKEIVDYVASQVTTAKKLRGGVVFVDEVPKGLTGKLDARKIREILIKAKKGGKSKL

O=S(=O)(c1ccc(F)cc1)N(Cc1ccco1)Cc1cc2ccccc2nc1O
EC50 [1]: > 112 µM (not active)
EC50 [2]: > 112 µM (not active)

CCOC(=O)c1cnn(-c2ccccc2)c1-n1cccc1
EC50 [3]: > 195 µM (not active)

COc1cc(OC)c2c(c1)OCC1CON(C)C21 (stereo not drawn)
EC50 [3]: > 195 µM (not active)

CCOc1ccc(C2C(C(=O)NC)=C(C)Nc3nc4ccccc4n32)cc1OC (stereo not drawn)
EC50 [1]: > 112 µM (not active)
EC50 [2]: > 112 µM (not active)

O=[N+]([O-])c1ccc(N2CCCC(C(F)(F)F)C2)c2ccncc12 (stereo not drawn)
EC50 [4]: > 120 µM (not active)
EC50 [5]: > 120 µM (not active)
EC50 [6]: > 120 µM (not active)
AC50 [7]: > 380 µM (inactive)
EC50 (Protein RecA): 10.8 µM (active)

O=C(CSc1ccccc1)Nc1cccc(NC(=O)c2ccco2)c1
EC50 [3]: > 195 µM (not active)

CCc1nn2c(=O)c(S(=O)(=O)Nc3cccc(F)c3)c(C)nc2s1
EC50 [3]: > 195 µM (not active)

CCCN(Cc1ccccc1)C(=S)NC(=O)c1ccccc1[N+](=O)[O-]
EC50 [3]: > 195 µM (not active)

Cn1ccnc1SCC(=O)Nc1ccc2c(c1)OC(F)(F)O2
EC50 [1]: > 112 µM (not active)
EC50 [2]: > 112 µM (not active)

O=C(Nc1ccccn1)c1c(O)c2cccc3c2n(c1=O)CCC3
EC50 [1]: > 112 µM (not active)
EC50 [2]: > 112 µM (not active)

N#C/C(=C(/O)Cc1cccc2ccccc12)c1nc2ccccc2s1
EC50 [8]: 3.14 µM (active)
EC50 [9]: 2.91 µM (active)
IC50 [10]: 2.49 µM (active)
EC50 (Streptococcus): 3.17 µM (active)

Cc1ccc(-c2cnn(-c3ccccc3)c2N)cc1
EC50 [1]: 1.92 µM (active)
EC50 [2]: 2.57 µM (active)

S=C(Nc1ccc(Nc2ccccc2)cc1)NN1CCOCC1
EC50 [11]: 56.1 µM (active)
EC50 [3]: > 195 µM (not active)
EC50 [12]: > 120 µM (not active)
EC50 (H4): > 120 µM (not active)

CC(=O)N1C(=O)C2(C(C#N)=C(N)Oc3c2c(C)nn3-c2ccccc2)c2ccccc21 (stereo not drawn)
AC50 [7]: 4.34 µM (active)
EC50 (Protein RecA): 2.28 µM (active)

O=C1CC(NC(=O)C(F)(F)F)=NN1c1ccccc1
AC50 [7]: 6.86 µM (active)
EC50 (Protein RecA): 5.51 µM (active)

CCOC(=O)Cc1ccc2sc(-c3ccccc3)nc2c1
EC50 [1]: 1.54 µM (active)
EC50 [2]: 2.68 µM (active)

COc1cc(C=C(c2nc3ccccc3s2)c2nc3ccccc3s2)ccc1O
AC50 [7]: > 380 µM (inactive)
EC50 (Protein RecA): 5.08 µM (active)

Cc1ccc(SCc2n[nH]c3c2C(c2ccco2)C(C#N)=C(N)O3)cc1 (stereo not drawn)
AC50 [7]: < 0.018 µM (active)
EC50 (Protein RecA): 6.19 µM (active)

COc1ccc(CCN2CC(C(=O)NCCc3ccc(C(F)(F)F)cc3)CCC2=O)cc1 (stereo not drawn)
EC50 [1]: > 112 µM (not active)
EC50 [2]: > 112 µM (not active)

O=Cc1c(-c2ccc(Cl)cc2)oc2ccc(O)cc12
EC50 [3]: 18 µM (active)

Cc1ccc(OC(=O)c2ccc([N+](=O)[O-])cc2Cl)cn1
AC50 [7]: 11.2 µM (active)
EC50 (Protein RecA): 4.92 µM (active)

O=S(=O)(c1ccccc1)N1CN2CCN(C2)C1
EC50 [3]: > 195 µM (not active)

C[C@H]1COC(=O)[C@H](NC(=O)OCC2c3ccccc3-c3ccccc32)C/C=C\C[C@H](CC(=O)N(CCO)Cc2ccccc2)C(=O)N1
AC50 [13]: 5.76 µM (active)
AC50 [14]: 6.08 µM (active)

CC(C)(C)c1ccc(C(=O)NC(=S)N2CCCC2)cc1
EC50 [3]: > 195 µM (not active)

CC1C/C(=N/Nc2nc3ccccc3[nH]2)CC(C)(C)C1 (stereo not drawn)
EC50 [3]: > 195 µM (not active)

CC1=C(C)/C(=N/OC(=O)c2cccc([N+](=O)[O-])c2)C=CC1=O
EC50 [15]: 9.24 µM (active)
AC50 [7]: > 380 µM (inactive)
EC50 [16]: 9.44 µM (active)
EC50 (Protein RecA): 0.418 µM (active)

COc1cccc(/C=N/NC(=O)c2cnccn2)c1
EC50 [3]: > 195 µM (not active)
